Target: transferrin receptor (hTfR) (Homo sapiens, UniProt P02786)
Experiment: Intermolecular interaction evaluation test between transferrin receptor (hTfR) and peptide-nucleic acid conjugate using surface plasmon resonance (SPR)
Format: binding
Procedure: Intermolecular interaction evaluation test between transferrin receptor (hTfR) and peptide using surface plasmon resonance (SPR)
The various synthesized peptide-nucleic acid conjugates were tested for intermolecular interaction by surface plasmon resonance (SPR) of the peptide-nucleic acid conjugate with transferrin receptor (hTfR) using the method shown below. The specific test method is shown below.
NTA sensor chip (Global Life Science Technologies Japan Co., Ltd.) was inserted into Biacore T200 (Global Life Science Technologies Japan Co., Ltd.), prime operation was performed three times with running buffer: 10 mM HEPES pH 8.0 (Nacalai Tesque Co., Ltd.), 150 mM NaCl (Nacalai Tesque Co., Ltd.), 0.05% Tween 20 (Nacalai Tesque Co., Ltd.), 0.1% BSA (SIGMA-ALDRICH), and 1.0% DMSO (FUJIFILM Wako Pure Chemical Corporation), and equilibrated at a flow rate of 30 μL/min. 350 mM EDTA solution was reacted for 60 seconds at a flow rate of 10 μL/min, 0.5 mM NiCl2 solution (Kishida Chemical) was reacted for 60 seconds at a flow rate of 10 μL/min, and the NTA sensor chip was washed with 3 mM EDTA solution (Nacalai Tesque Co., Ltd.) for 60 seconds at a flow rate of 10 μL/min. After mixing 50 μL each of […] EDC solution (Global Life Science Technologies Japan Co., Ltd.) and […] NHS solution (Global Life Science Technologies Japan Co., Ltd.), the mixture was reacted for 420 seconds at a flow rate of 10 μL/min. 150 μL of a 0.5 μM hTfR solution was prepared by diluting with a running buffer and reacted for 300 seconds at a flow rate of 10 μL/min to immobilize hTfR on the NTA sensor chip. After immobilization, capping was performed by reacting with a 1.0 M ethanolamine aqueous solution (Global Life Science Technologies Japan Co., Ltd.) at a flow rate of 10 μL/min for 420 seconds. A peptide-nucleic acid conjugate solution adjusted to 10 mM in DMSO solution was diluted with running buffer to a final concentration of 10 μM peptide-nucleic acid conjugate solution, and 100 nM, 50 nM, 25 nM, 10 nM, 5 nM peptide-nucleic acid conjugate solutions were prepared. Using the aforementioned samples, the kinetics of the peptide against hTfR was obtained by SPR measurement.
The kinetics evaluation model was Single Cycle Kinetics, and curve fitting was performed using Biacore T200 Evaluation Software Version 3.0 (Global Life Science Technologies Japan Co., Ltd.). The obtained sensorgram was subjected to curve fitting using the least squares method, and the binding of the peptide-nucleic acid conjugate to hTfR was evaluated by determining the KD value.

Sequence of transferrin receptor (hTfR) (P02786 whole entry): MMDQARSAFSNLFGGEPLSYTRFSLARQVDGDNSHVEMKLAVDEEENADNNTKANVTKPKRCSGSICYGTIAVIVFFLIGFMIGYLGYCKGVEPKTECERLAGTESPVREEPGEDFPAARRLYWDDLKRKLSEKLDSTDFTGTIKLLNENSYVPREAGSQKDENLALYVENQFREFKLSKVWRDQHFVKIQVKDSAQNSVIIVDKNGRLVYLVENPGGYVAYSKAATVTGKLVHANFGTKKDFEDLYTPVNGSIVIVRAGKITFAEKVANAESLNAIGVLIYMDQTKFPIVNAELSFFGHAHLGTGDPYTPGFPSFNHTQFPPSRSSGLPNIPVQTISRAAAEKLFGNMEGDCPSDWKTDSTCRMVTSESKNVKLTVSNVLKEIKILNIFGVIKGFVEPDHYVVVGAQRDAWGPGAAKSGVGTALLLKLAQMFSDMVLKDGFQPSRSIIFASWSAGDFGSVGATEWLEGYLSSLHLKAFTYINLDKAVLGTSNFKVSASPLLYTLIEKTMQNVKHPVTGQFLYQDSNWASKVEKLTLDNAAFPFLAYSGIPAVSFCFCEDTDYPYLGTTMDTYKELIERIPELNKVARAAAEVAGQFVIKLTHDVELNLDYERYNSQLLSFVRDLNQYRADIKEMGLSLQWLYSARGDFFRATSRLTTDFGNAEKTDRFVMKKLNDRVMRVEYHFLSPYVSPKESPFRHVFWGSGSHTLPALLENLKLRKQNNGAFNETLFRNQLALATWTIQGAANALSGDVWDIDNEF

## CC[C@H](C)[C@@H]1NC(=O)[C@H](Cc2ccc(O)cc2)NC(=O)[C@H](Cc2ccc(O)cc2)NC(=O)[C@H](CC(N)=O)NC(=O)[C@H](Cc2c[nH]c3ccccc23)NC(=O)[C@H](C(C)C)NC(=O)[C@H](Cc2ccccc2)N(C)C(=O)[C@H](C(C)C)NC(=O)[C@H](C)NC(=O)CSC[C@@H](C(=O)NCC(=O)N[C@@H](CCCCn2cc(CCC(=O)NCCOCCOCC(=O)N[C@@H](CCCNC(=N)N)C(=O)N[C@@H](CCCNC(=N)N)C(=O)N[C@@H](CCCNC(=N)N)C(=O)NCC(=O)N3C[C@@H](COP(=O)(N(C)C)N4C[C@@H](COP(=O)(N(C)C)N5C[C@@H](COP(=O)(N(C)C)N6C[C@@H](COP(=O)(N(C)C)N7C[C@@H](COP(=O)(N(C)C)N8C[C@@H](COP(=O)(N(C)C)N9C[C@@H](COP(=O)(N(C)C)N%10C[C@@H](COP(=O)(N(C)C)N%11C[C@@H](COP(=O)(N(C)C)N%12C[C@@H](COP(=O)(N(C)C)N%13C[C@@H](COP(=O)(N(C)C)N%14C[C@@H](COP(=O)(N(C)C)N%15C[C@@H](COP(=O)(N(C)C)N%16C[C@@H](COP(=O)(N(C)C)N%17C[C@@H](COP(=O)(N(C)C)N%18C[C@@H](COP(=O)(N(C)C)N%19C[C@@H](COP(=O)(N(C)C)N%20C[C@@H](COP(=O)(N(C)C)N%21C[C@@H](COP(=O)(N(C)C)N%22C[C@@H](COP(=O)(N(C)C)N%23C[C@@H](COP(=O)(N(C)C)N%24C[C@@H](COP(=O)(N(C)C)N%25C[C@@H](COP(=O)(N(C)C)N%26C[C@@H](COP(=O)(N(C)C)N%27C[C@@H](COP(=O)(N(C)C)N(C)CC(N)=O)O[C@@H](n%28cnc%29c(=O)[nH]c(N)nc%29%28)C%27)O[C@@H](n%27cnc%28c(=O)[nH]c(N)nc%28%27)C%26)O[C@@H](n%26ccc(N)nc%26=O)C%25)O[C@@H](n%25ccc(N)nc%25=O)C%24)O[C@@H](n%24cnc%25c(N)ncnc%25%24)C%23)O[C@@H](n%23cnc%24c(N)ncnc%24%23)C%22)O[C@@H](n%22cnc%23c(N)ncnc%23%22)C%21)O[C@@H](n%21ccc(N)nc%21=O)C%20)O[C@@H](n%20ccc(N)nc%20=O)C%19)O[C@@H](n%19cc(C)c(=O)[nH]c%19=O)C%18)O[C@@H](n%18ccc(N)nc%18=O)C%17)O[C@@H](n%17cnc%18c(=O)[nH]c(N)nc%18%17)C%16)O[C@@H](n%16cnc%17c(=O)[nH]c(N)nc%17%16)C%15)O[C@@H](n%15ccc(N)nc%15=O)C%14)O[C@@H](n%14cc(C)c(=O)[nH]c%14=O)C%13)O[C@@H](n%13cc(C)c(=O)[nH]c%13=O)C%12)O[C@@H](n%12cnc%13c(N)ncnc%13%12)C%11)O[C@@H](n%11ccc(N)nc%11=O)C%10)O[C@@H](n%10ccc(N)nc%10=O)C9)O[C@@H](n9cc(C)c(=O)[nH]c9=O)C8)O[C@@H](n8cnc9c(=O)[nH]c(N)nc98)C7)O[C@@H](n7cnc8c(N)ncnc87)C6)O[C@@H](n6cnc7c(N)ncnc76)C5)O[C@@H](n5cnc6c(N)ncnc65)C4)O[C@@H](n4cc(C)c(=O)[nH]c4=O)C3)nn2)C(N)=O)NC(=O)[C@H](Cc2ccc(O)cc2)N(C)C(=O)[C@H](Cc2ccc(O)cc2)NC(=O)[C@H](CCCNC(=N)N)NC(=O)[C@H](CCCNC(=N)N)NC(=O)[C@H]([C@@H](C)CC)NC1=O (stereo partly shown) [Example 60]
  Kd: < 100 nM

— patent US20240390508A1, “HUMAN TRANSFERRIN RECEPTOR BINDING PEPTIDE-DRUG CONJUGATE” (priority 2021, published 2024)
